Test results reported in patent publication US20050130237A1, “High throughput screening method for compounds with non-, pro-, or anti-apoptotic or proliferative or necrotic activity” (priority 2002, published 2005).
Peptide text beside a SMILES is read from it. * marks the point of attachment. Cbz = O=C(OCc1ccccc1)*; CH2F = FC*

Columns and labels:
Assay type in all cases: cell-based, human
JurkatGFP cells = assay: Anti-apoptotic activity after induction of apoptosis by serially diluted soluble FasL, fluorescence microplate reader; conditions: 24 h incubation, compared with control peptide zFA
Description: The activity of an anti-apoptotic compound, e.g. the pan caspase inhibitor zVADfmk, has been tested on JurkatGFP cells after induction of apoptosis by serially diluted soluble FasL and measured by a fluorescence microplate reader. […] The bars indicate standard deviations, which have been determined by measuring 6 single values for each datapoint.

HeLa cells [1] = assay: Secondary screening: FACS analysis discriminating apoptotic and necrotic activity of anti-cancer drugs; conditions: for necrotic activity (FACS histograms): necrosis evident after exposure longer than 24 h, followed up to 48 h, Navelbine, Velbe, Campto 1/1000 diluted, Adriblastin 1/2000 diluted
Description: For this purpose HeLa cells have been treated with typical anti-cancer drugs of different mode of actions. Navelbine and Velbe, two typical representatives of microtubules interfering drugs and Adriblastin and Campto, topo-isomerase inhibitors, which interfere with DNA synthesis.
Arrows indicate regions with either necrotic cells (left arrow) or apoptotic cells (middle arrow) or proliferating/living cells (right arrow). […] This fact became evident after exposure of the cells for longer than 24 h.
HeLa cells have been treated with typical anti-cancer drugs of different mode of actions. Navelbine and Velbe, two typical representatives of microtubules interfering drugs and Adriblastin and Campto, topo-isomerase inhibitor, which interfere with DNA synthesis. Histograms of FACS analysis of cells treated either with Navelbine (1/1000 diluted), Velbe (1/1000 diluted), Adriblastin (1/2000 diluted) and Campto (1/1000 diluted) are shown in FIG. 4. Arrows indicate regions with either necrotic cells (left arrow), apoptotic cells (middle arrow) and proliferating cells (right arrow). […] This fact became evident after exposure of the cells for longer than 24 h.

HeLa cells [2] = assay: Primary screening: overall EGFP relative fluorescence activity per well, fluorescence microplate reader, 96-well plates; conditions: values under 0.8 = pro-apoptotic and/or necrotic
Description: A representative primary screening with standard experimental set-up, where 16 commercially available anti-cancer drugs have been tested on five different EGFP expressing cell lines (HeLa, KB, A20, Ramos and Jurkat) in 96-well microtiter plates is shown in FIG. 2. Differential susceptibility regarding induction of apoptosis and/or necrosis after treatement with 5-Fluorouracil (5-FU), Gemzar, Methotrexate, Eloxantin, Detimedac, Endoxan, Paraplatin, Navelbine, Velbe, Taxotere, Taxol, Adriblastin, Bleomycin, Campto, Etopophos and Farmorubicin is shown. Measurements after 24 h and 48 h were performed with a fluorescence microplate reader, which measures the overall fluorescence activity in a single well. Used compound concentrations are indicated by a fraction of the original concentration.
The setting of a cut-off value, corresponding to 0.8 in this case, allows the clear discrimination between two main groups of different activities. […] According to these intermediate values between 0 and 0.8 measured by a fluorescence microplate reader, it can hardly be discriminated between the subpopulations of apoptotic and necrotic cells within the same well. […]
Immediately after the addition of the compounds to the cells the zero fluorescence value (t=0 h) was determined by using a fluorescence microplate reader in order to be able to normalize the fluorescence activities. […]

## COC(=O)C[C@H](NC(=O)[C@H](C)NC(=O)[C@@H](NC(=O)OCc1ccccc1)C(C)C)C(=O)CF [zVAD] (Cbz-Val-Ala-Asp(OMe)-CH2F)
JurkatGFP cells
  anti-apoptotic effect on the apoptotic activity of FasL: clear inhibitory anti-apoptotic effect

## CC[C@]1(O)C[C@@H]2CN(CCc3c([nH]c4ccccc34)[C@@](C(=O)OC)(c3cc4c(cc3OC)N(C)[C@H]3[C@@](O)(C(=O)OC)[C@H](OC(C)=O)[C@]5(CC)C=CCN6CC[C@]43[C@@H]65)C2)C1 [Velbe]
HeLa cells [1]
  necrotic activity (FACS histograms): strong tendency to induce necrosis

## CCc1c2c(nc3ccc(OC(=O)N4CCC(N5CCCCC5)CC4)cc13)-c1cc3c(c(=O)n1C2)COC(=O)[C@]3(O)CC [Campto]
HeLa cells [1]
  necrotic activity (FACS histograms): do not show any tendency for necrotic activity

## CCC1=C[C@@H]2CN(C1)Cc1c([nH]c3ccccc13)[C@@](C(=O)OC)(c1cc3c(cc1OC)N(C)[C@H]1[C@@](O)(C(=O)OC)[C@H](OC(C)=O)[C@]4(CC)C=CCN5CC[C@]31[C@@H]54)C2 [Navelbine]
HeLa cells [1]
  necrotic activity (FACS histograms): strong tendency to induce necrosis
HeLa cells [2]; highest concentration 1/10 k of original concentration
  relative fluorescence activity (intermediate value, cut-off 0.8): 0.49

## COc1cccc2c1C(=O)c1c(O)c3c(c(O)c1C2=O)C[C@@](O)(C(=O)CO)C[C@@H]3O[C@H]1C[C@H](N)[C@H](O)[C@H](C)O1 [Adriblastin]
HeLa cells [1]
  necrotic activity (FACS histograms): do not show any tendency for necrotic activity
HeLa cells [1]; single-cell flow cytometry
  apoptotic activity (FACS histograms): only induce apoptosis
HeLa cells [2]; highest concentration 1/5 k of original concentration
  relative fluorescence activity (intermediate value, cut-off 0.8): 0.53
